Data taken from ChEMBL document CHEMBL1201862, “PubChem BioAssay data set” (2004).
Activity calls are given as the source filed them.

What was measured:
[1] = Vero cell cytotoxicity, dose response, cytotoxicity control for M. tuberculosis growth inhibitor project, Vero cells, purified and synthesized compounds, set 5 (AID 504909); format: functional; conditions: Mycobacterium tuberculosis
Streptococcus = assay: Group A Streptococcus viability loss, dose response, counter-screen for streptokinase expression inhibitor project, luminescence, BacTiterGlo (AID 1915); format: functional, organism-based;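 also: potency for reduction of bacterial viability or growth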
Streptokinase A = molecular target: T1, Streptokinase A (Streptococcus pyogenes serotype M1, UniProt P10520); assay: S. pyogenes streptokinase expression inhibitors, potency, dose response, plasminogen activation absorbance, OD405 (AID 1914); format: functional, Streptococcus pyogenes M1 GAS;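 also: secreted streptokinase activity via plasminogen activation per viability signal from cell pellet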
T1 sequence (P10520 whole entry): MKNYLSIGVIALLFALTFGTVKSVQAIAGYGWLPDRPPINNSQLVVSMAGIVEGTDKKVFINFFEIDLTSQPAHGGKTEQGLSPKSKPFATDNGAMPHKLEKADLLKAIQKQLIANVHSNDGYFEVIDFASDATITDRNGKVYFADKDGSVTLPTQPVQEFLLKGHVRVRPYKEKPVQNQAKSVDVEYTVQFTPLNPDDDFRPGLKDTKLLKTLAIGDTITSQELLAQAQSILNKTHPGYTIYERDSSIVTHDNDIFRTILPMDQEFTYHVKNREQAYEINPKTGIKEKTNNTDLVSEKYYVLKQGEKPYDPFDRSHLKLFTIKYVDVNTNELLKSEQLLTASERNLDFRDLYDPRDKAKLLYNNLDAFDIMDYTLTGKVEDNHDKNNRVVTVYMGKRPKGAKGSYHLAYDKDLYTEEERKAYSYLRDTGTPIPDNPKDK

[2] = HepG2 cell cytotoxicity, cytotoxicity control, set 4 (AID 504910); format: functional; conditions: Mycobacterium tuberculosis
[3] = system: Streptococcus sp. 'group A'; assay: growth inhibition of control SK(-) GAS strain, dose response, counter-screen for streptokinase expression inhibitor project, luminescence, kanamycin, BacTiterGlo, confirmation (AID 1900); format: functional, organism-based
INS1 = assay: beta cell apoptosis inhibitors, cytokine rescue, dose response, luminescence, retest (AID 449756); format: functional, cell-based; conditions: Rattus norvegicus;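 also: cell death triggered by IL-1 beta plus TNF-alpha plus IFN-gamma mixture; protective hits raise ATP signal compared with cytokine alone wells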
[4] = THP-1 cell cytotoxicity, cytotoxicity control, set 4 (AID 504911); format: functional; conditions: Mycobacterium tuberculosis
[5] = molecular target: Tyrosine-protein kinase receptor TYRO3 (Homo sapiens, UniProt Q06418); format: functional;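 also: TYRO3 value obtained as one member of a kinome-wide profiling panel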
[6] = molecular target: Fibroblast growth factor receptor 1 (Homo sapiens, UniProt P11362); format: functional
[7] = molecular target: cAMP-dependent protein kinase catalytic subunit alpha (Homo sapiens, UniProt P17612); format: functional
[8] = molecular target: Protein kinase C theta type (Homo sapiens, UniProt Q04759); assay: Navigating the Kinome. Panel member name: PRKCQ; format: functional
[9] = molecular target: Mitogen-activated protein kinase 8 (Homo sapiens, UniProt P45983); format: functional;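 also: value comes from one member of a kinome-wide kinase profiling panel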
[10] = molecular target: 5'-AMP-activated protein kinase catalytic subunit alpha-1 (Homo sapiens, UniProt Q13131); format: functional
[11] = molecular target: Dual specificity mitogen-activated protein kinase kinase 2 (Homo sapiens, UniProt P36507); assay: Navigating the Kinome. Panel member name: MAP2K2; format: functional
[12] = molecular target: Proto-oncogene tyrosine-protein kinase receptor Ret (Homo sapiens, UniProt P07949); format: functional;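 also: measured within a kinome-wide profiling panel, RET as the panel member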
[13] = molecular target: Serine/threonine-protein kinase Chk1 (Homo sapiens, UniProt O14757); format: functional;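 also: measured as one member of a kinome-wide kinase profiling panel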
[14] = molecular target: Tyrosine-protein kinase ABL1 (Homo sapiens, UniProt P00519); format: functional
[15] = molecular target: Tyrosine-protein kinase Lck (Homo sapiens, UniProt P06239); format: functional;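 also: lck was assayed as one member of a kinase panel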
[16] = molecular target: Dual specificity protein kinase CLK2 (Homo sapiens, UniProt P49760); format: functional
[17] = molecular target: Mitogen-activated protein kinase kinase kinase kinase 2 (Homo sapiens, UniProt Q12851); format: functional;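 also: measured as one member of a kinome-wide kinase panel, with MAP4K2 as the panel entry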
[18] = molecular target: Serine/threonine-protein kinase D3 (Homo sapiens, UniProt O94806); format: functional;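 also: determined within a kinase panel screen, with PRKCN as the panel member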
LIM domain kinase 1 = LIM domain kinase 1 (Homo sapiens, UniProt P53667); assay: Navigating the Kinome. Panel member name: LIMK1; format: functional
[19] = molecular target: Tyrosine-protein kinase Fyn (Homo sapiens, UniProt P06241); format: functional
[20] = molecular target: Cyclin-dependent kinase 9 (Homo sapiens, UniProt P50750); format: functional;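 also: value from the CDK9 entry of a kinome-spanning kinase panel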
[21] = molecular target: Dual specificity mitogen-activated protein kinase kinase 1 (Homo sapiens, UniProt Q02750); assay: Navigating the Kinome. Panel member name: MAP2K1; format: functional
[22] = molecular target: Tyrosine-protein kinase JAK2 (Homo sapiens, UniProt O60674); format: functional;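 also: JAK2 tested as one member of a kinase panel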
[23] = molecular target: BDNF/NT-3 growth factors receptor (Homo sapiens, UniProt Q16620); format: functional;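 also: NTRK2 measured as one member of a broad kinome-wide kinase profiling panel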
[24] = molecular target: Serine/threonine-protein kinase TAO1 (Homo sapiens, UniProt Q7L7X3); format: functional
[25] = molecular target: Insulin-like growth factor 1 receptor (Homo sapiens, UniProt P08069); assay: Navigating the Kinome. Panel member name: IGF1R; format: functional
[26] = molecular target: Cyclin-dependent kinase 7 (Homo sapiens, UniProt P50613); format: functional;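 also: value comes from a kinome-wide kinase profiling panel in which CDK7 is one member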
[27] = molecular target: Vascular endothelial growth factor receptor 2 (Homo sapiens, UniProt P35968); format: functional
[28] = molecular target: Cyclin-dependent kinase 5 (Homo sapiens, UniProt Q00535); format: functional;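 also: CDK5 measured as one member of a kinase profiling panel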
Aurora kinase B = Aurora kinase B (Homo sapiens, UniProt Q96GD4); format: functional
[29] = molecular target: Glycogen synthase kinase-3 alpha (Homo sapiens, UniProt P49840); format: functional;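 also: GSK3A result taken from a broad kinome-wide kinase panel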
[30] = molecular target: Glycogen synthase kinase-3 beta (Homo sapiens, UniProt P49841); format: functional;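 also: value comes from a broad kinome profiling panel, with GSK3B as the panel member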
[31] = molecular target: Macrophage colony-stimulating factor 1 receptor (Homo sapiens, UniProt P07333); format: functional;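 also: value comes from the Navigating the Kinome screening panel, CSF1R member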
Activated CDC42 kinase 1 = Activated CDC42 kinase 1 (Homo sapiens, UniProt Q07912); assay: Navigating the Kinome. Panel member name: ACK1; format: functional
[32] = molecular target: ALK tyrosine kinase receptor (Homo sapiens, UniProt Q9UM73); format: functional;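 also: ALK tested as one member of a kinase panel screen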
[33] = molecular target: Dual specificity tyrosine-phosphorylation-regulated kinase 1B (Homo sapiens, UniProt Q9Y463); assay: Navigating the Kinome. Panel member name: DYRK1B; format: functional
[34] = molecular target: Mitogen-activated protein kinase 9 (Homo sapiens, UniProt P45984); format: functional;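 also: value from a kinome panel profiling assay, MAPK9 panel entry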
[35] = molecular target: Casein kinase I isoform alpha (Homo sapiens, UniProt P48729); format: functional
[36] = molecular target: Serine/threonine-protein kinase TBK1 (Homo sapiens, UniProt Q9UHD2); assay: Navigating the Kinome. Panel member name: TBK1; format: functional
[37] = molecular target: Leukocyte tyrosine kinase receptor (Homo sapiens, UniProt P29376); assay: Navigating the Kinome. Panel member name: LTK; format: functional
[38] = molecular target: Vascular endothelial growth factor receptor 1 (Homo sapiens, UniProt P17948); format: functional;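 also: measured within a kinome-wide profiling panel, FLT1 as the panel member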
[39] = molecular target: Macrophage-stimulating protein receptor (Homo sapiens, UniProt Q04912); assay: Navigating the Kinome. Panel member name: MST1R; format: functional
Focal adhesion kinase 1 = Focal adhesion kinase 1 (Homo sapiens, UniProt Q05397); format: functional;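 also: measured as one member of a kinome panel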
[40] = molecular target: Serine/threonine-protein kinase pim-1 (Homo sapiens, UniProt P11309); format: functional
[41] = molecular target: Mitogen-activated protein kinase kinase kinase kinase 4 (Homo sapiens, UniProt O95819); format: functional
[42] = molecular target: Death-associated protein kinase 3 (Homo sapiens, UniProt O43293); format: functional;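 also: measured as one member of a kinome-wide profiling panel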
[43] = molecular target: Inhibitor of nuclear factor kappa-B kinase subunit epsilon (Homo sapiens, UniProt Q14164); assay: Navigating the Kinome. Panel member name: IKBKE; format: functional
[44] = molecular target: Cyclin-dependent kinase 8 (Homo sapiens, UniProt P49336); assay: Navigating the Kinome. Panel member name: CDK8; format: functional
Activin receptor type-1 = Activin receptor type-1 (Homo sapiens, UniProt Q04771); assay: Navigating the Kinome. Panel member name: ACVR1; format: functional
[45] = molecular target: Platelet-derived growth factor receptor alpha (Homo sapiens, UniProt P16234); assay: Navigating the Kinome. Panel member name: PDGFRA; format: functional
[46] = molecular target: Leucine-rich repeat serine/threonine-protein kinase 2 (Homo sapiens, UniProt Q5S007); format: functional;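 also: value from a broad kinome-wide panel profiling study in which LRRK2 was one of the kinases tested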
[47] = molecular target: Dual specificity protein kinase CLK4 (Homo sapiens, UniProt Q9HAZ1); format: functional
[48] = molecular target: Rho-associated protein kinase 1 (Homo sapiens, UniProt Q13464); format: functional;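 also: measured within a broad kinome-wide panel profiling many kinases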
[49] = molecular target: Serine/threonine-protein kinase PAK 4 (Homo sapiens, UniProt O96013); format: functional;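 also: value obtained within a kinome profiling panel in which PAK4 was one of the panel members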
[50] = molecular target: cAMP-dependent protein kinase catalytic subunit PRKX (Homo sapiens, UniProt P51817); format: functional
[51] = molecular target: Tyrosine-protein kinase JAK3 (Homo sapiens, UniProt P52333); format: functional
[52] = molecular target: Calcium/calmodulin-dependent protein kinase type II subunit alpha (Homo sapiens, UniProt Q9UQM7); assay: Navigating the Kinome. Panel member name: CAMK2A; format: functional
Aurora kinase A = Aurora kinase A (Homo sapiens, UniProt O14965); format: functional;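 also: value from the Navigating the Kinome kinase panel profiling, panel entry STK6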
[53] = molecular target: Dual specificity tyrosine-phosphorylation-regulated kinase 1A (Homo sapiens, UniProt Q13627); format: functional;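 also: measured against DYRK1A as one member of a broad kinome profiling panel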

Proto-oncogene tyrosine-protein kinase receptor Ret, sequence (P07949 whole entry): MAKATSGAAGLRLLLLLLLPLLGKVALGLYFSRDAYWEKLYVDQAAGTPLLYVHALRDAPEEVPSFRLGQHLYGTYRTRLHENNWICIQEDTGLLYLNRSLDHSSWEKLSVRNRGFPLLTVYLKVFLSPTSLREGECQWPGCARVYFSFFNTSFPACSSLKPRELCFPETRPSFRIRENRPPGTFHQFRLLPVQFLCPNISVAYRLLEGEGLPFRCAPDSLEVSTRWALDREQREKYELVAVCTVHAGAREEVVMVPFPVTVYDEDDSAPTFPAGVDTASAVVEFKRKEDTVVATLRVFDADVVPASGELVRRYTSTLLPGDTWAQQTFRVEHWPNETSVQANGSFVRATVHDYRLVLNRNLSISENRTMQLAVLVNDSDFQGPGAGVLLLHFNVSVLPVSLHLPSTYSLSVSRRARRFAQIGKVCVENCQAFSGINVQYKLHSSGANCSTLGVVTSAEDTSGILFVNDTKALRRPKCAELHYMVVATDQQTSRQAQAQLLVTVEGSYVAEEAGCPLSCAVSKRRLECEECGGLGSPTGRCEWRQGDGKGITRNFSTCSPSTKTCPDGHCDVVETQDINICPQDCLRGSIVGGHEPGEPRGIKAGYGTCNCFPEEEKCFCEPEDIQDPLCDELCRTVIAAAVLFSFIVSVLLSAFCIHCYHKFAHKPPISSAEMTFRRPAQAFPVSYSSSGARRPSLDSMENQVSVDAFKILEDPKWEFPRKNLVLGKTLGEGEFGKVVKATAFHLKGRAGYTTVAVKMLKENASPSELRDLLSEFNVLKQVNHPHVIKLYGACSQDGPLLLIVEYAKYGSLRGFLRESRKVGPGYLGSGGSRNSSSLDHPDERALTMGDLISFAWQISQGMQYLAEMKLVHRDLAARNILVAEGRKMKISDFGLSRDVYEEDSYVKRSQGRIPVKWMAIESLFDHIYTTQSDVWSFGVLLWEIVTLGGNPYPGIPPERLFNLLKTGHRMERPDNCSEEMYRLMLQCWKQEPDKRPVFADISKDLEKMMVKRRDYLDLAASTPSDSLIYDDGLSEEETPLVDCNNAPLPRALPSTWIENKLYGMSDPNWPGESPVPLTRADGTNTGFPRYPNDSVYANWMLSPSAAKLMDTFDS
Macrophage-stimulating protein receptor, sequence (Q04912 25-304 limits assumed): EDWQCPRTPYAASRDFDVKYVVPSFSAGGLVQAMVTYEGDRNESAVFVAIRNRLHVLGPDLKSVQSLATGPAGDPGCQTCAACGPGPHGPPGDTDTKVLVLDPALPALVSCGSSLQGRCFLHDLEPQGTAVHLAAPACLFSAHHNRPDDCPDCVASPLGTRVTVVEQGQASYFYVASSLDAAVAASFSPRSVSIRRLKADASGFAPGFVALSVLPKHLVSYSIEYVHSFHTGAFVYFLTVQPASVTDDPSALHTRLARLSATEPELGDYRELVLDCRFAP
Macrophage-stimulating protein receptor, sequence (Q04912 310-1400 limits assumed): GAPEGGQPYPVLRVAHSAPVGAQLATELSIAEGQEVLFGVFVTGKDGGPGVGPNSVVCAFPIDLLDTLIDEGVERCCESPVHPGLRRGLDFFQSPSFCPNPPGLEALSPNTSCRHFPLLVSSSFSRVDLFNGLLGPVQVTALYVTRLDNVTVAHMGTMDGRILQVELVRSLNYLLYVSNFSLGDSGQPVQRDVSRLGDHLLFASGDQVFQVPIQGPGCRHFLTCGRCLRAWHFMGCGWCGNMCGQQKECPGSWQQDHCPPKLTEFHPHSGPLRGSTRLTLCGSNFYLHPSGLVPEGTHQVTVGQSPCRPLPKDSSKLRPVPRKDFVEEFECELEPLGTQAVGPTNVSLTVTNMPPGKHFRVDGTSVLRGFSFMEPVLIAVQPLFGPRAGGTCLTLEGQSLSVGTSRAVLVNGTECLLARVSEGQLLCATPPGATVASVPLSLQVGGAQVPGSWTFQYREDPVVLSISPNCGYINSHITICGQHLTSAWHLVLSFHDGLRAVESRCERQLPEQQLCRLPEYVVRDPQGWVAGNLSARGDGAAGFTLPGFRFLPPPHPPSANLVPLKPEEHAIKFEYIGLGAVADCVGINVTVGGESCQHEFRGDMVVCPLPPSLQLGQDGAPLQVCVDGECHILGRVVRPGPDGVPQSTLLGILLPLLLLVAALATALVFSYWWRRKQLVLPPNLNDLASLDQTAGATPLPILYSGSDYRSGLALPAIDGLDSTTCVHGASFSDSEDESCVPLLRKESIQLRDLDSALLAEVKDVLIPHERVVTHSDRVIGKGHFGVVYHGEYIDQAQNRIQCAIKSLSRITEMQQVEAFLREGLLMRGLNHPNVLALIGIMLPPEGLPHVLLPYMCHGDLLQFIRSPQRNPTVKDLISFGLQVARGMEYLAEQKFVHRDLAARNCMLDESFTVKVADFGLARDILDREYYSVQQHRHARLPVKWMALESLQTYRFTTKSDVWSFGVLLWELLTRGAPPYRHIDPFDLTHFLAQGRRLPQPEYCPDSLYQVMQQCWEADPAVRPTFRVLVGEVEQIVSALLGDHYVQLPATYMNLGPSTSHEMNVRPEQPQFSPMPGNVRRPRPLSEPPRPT
Dual specificity protein kinase CLK2, sequence (P49760 whole entry): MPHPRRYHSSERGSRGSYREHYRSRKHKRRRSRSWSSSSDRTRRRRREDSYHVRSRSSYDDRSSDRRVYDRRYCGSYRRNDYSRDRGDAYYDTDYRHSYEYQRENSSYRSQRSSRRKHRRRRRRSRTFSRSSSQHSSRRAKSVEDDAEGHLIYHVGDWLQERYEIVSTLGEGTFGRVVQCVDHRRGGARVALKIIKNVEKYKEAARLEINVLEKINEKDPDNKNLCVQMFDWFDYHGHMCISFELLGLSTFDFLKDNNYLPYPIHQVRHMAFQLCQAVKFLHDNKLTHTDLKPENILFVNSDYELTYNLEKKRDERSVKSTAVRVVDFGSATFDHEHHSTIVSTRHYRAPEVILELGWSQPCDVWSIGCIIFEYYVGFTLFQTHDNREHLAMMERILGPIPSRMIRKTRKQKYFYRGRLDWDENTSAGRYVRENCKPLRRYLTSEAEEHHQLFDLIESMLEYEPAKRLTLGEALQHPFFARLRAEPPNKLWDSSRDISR
Serine/threonine-protein kinase TAO1, sequence (Q7L7X3 whole entry): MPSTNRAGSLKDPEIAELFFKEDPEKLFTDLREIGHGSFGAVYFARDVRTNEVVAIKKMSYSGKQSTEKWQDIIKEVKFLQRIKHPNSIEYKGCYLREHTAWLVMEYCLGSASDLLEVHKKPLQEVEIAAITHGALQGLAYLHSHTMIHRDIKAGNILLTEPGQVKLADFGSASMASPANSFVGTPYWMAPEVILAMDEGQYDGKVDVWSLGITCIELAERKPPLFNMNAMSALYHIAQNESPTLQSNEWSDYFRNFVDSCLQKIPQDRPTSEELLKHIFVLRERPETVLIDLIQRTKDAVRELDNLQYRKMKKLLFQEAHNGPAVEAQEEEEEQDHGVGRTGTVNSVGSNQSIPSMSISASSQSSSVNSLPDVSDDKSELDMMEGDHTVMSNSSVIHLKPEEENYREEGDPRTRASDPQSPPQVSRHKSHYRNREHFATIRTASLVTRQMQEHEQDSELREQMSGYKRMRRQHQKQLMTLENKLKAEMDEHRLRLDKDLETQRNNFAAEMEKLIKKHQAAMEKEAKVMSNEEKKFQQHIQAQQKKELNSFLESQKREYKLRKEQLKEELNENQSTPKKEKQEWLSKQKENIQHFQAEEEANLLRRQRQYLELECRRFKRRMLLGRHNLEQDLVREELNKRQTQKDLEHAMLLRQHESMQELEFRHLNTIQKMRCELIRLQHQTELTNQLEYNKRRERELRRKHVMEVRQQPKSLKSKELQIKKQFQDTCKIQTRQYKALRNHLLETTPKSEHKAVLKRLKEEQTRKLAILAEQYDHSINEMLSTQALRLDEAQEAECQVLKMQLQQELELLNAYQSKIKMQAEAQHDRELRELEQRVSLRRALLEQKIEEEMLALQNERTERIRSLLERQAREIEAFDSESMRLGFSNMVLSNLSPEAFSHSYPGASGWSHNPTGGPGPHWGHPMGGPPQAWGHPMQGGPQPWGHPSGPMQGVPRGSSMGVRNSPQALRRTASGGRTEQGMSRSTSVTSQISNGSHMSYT
Dual specificity tyrosine-phosphorylation-regulated kinase 1B, sequence (Q9Y463 whole entry): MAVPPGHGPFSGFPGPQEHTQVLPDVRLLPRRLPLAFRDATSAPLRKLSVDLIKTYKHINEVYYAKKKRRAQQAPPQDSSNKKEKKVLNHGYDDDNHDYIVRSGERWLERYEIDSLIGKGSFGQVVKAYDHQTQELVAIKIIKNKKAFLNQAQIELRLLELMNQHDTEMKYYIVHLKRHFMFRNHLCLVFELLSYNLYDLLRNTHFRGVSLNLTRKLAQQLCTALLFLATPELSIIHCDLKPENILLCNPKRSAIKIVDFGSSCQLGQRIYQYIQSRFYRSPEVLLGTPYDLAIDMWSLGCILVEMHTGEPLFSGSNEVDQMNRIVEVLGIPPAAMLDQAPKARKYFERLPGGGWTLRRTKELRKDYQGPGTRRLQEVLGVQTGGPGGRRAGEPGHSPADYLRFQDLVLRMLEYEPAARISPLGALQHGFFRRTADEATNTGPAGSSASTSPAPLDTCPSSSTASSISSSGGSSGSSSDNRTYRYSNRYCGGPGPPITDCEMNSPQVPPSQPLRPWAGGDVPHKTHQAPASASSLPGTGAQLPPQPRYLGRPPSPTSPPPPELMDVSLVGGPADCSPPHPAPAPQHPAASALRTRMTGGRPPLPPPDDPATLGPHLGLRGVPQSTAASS
Aurora kinase A, sequence (O14965 whole entry): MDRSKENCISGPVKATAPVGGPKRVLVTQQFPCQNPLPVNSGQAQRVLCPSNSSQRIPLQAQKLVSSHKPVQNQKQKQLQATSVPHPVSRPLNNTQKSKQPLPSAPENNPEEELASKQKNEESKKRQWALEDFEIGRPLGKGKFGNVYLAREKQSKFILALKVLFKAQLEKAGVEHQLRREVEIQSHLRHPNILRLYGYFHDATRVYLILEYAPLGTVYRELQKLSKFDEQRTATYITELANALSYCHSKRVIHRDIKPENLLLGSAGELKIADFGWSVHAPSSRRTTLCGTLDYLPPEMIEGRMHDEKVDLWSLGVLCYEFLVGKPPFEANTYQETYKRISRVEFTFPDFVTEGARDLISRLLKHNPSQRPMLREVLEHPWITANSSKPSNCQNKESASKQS

CC(C)/N=c1\cc2n(-c3ccc(Cl)cc3)c3ccccc3nc-2cc1Nc1ccc(Cl)cc1 [CLOFAZIMINE]
active: CC50 [1] 10.2 µM | EC50 (Streptococcus) 36.9 µM | EC50 (Streptokinase A) 2.28 µM | CC50 [2] 4.7 µM | EC50 [3] 1.86 µM | AC50 (INS1) 2.06 µM | CC50 [4] 2.2 µM

Cc1n[nH]c2ccc(-c3cccnc3)cc12
active: Ki [5] 79.4 µM | Ki [6] 50.1 µM | Ki [7] 2.51 µM | Ki [8] 0.126 µM | Ki [9] 5.01 µM | Ki [10] 20 µM | Ki [11] 10 µM | Ki [12] 39.8 µM | Ki [13] 63.1 µM | Ki [14] 25.1 µM | Ki [15] 63.1 µM | Ki [16] 0.0631 µM | Ki [17] 3.98 µM | Ki [18] 2.51 µM | Ki (LIM domain kinase 1) 79.4 µM | Ki [19] 79.4 µM | Ki [20] 0.794 µM | Ki [21] 10 µM | Ki [22] 7.94 µM | Ki [23] 79.4 µM | Ki [24] 50.1 µM | Ki [25] 39.8 µM | Ki [26] 7.94 µM | Ki [27] 6.31 µM | Ki [28] 0.126 µM | Ki (Aurora kinase B) 10 µM | Ki [29] 3.98 µM | Ki [30] 3.98 µM | Ki [31] 31.6 µM | Ki (Activated CDC42 kinase 1) 50.1 µM | Ki [32] 12.6 µM | Ki [33] 0.0126 µM | Ki [34] 20 µM | Ki [35] 7.94 µM | Ki [36] 39.8 µM | Ki [37] 3.16 µM | Ki [38] 31.6 µM | Ki [39] 12.6 µM | Ki (Focal adhesion kinase 1) 25.1 µM | Ki [40] 7.94 µM | Ki [41] 2.51 µM | Ki [42] 2 µM | Ki [43] 20 µM | Ki [44] 0.0251 µM | Ki (Activin receptor type-1) 3.98 µM | Ki [45] 31.6 µM | Ki [46] 0.398 µM | Ki [47] 0.002 µM | Ki [48] 0.251 µM | Ki [49] 79.4 µM | Ki [50] 6.31 µM | Ki [51] 63.1 µM | Ki [52] 12.6 µM | Ki (Aurora kinase A) 15.8 µM | Ki [53] 0.0398 µM
